In patent publication US7816325B2, “Secondary binding site of dipeptidyl peptidase IV (DP IV)” (OSI Pharmaceuticals, Inc., priority 2003, dated 2010):
Read-outs that look alike come from different tables or passages of the source. Where a SMILES comes first, the peptide text is derived from it. [ ]: non-standard residue; d: D form. The star is where a group is joined. AMC = Cc1cc(=O)oc2cc(N*)ccc12

Key:
DP IV [1] = assay: DP IV-catalyzed truncation of peptides, half-life by MALDI-TOF MS; type: biochemical; conditions: for hydrolysis by DP IV: GIP-fragments of different chain lengths
Method: (§1) In particular, the capability of purified DP IV from human, from porcine kidney, of recombinant human DP IV and the DP IV activity of the human serum to truncate the peptides of the GRF family were analyzed.
(§2) 250 single laser-shot spectra were accumulated.

[2] = biological target: T1, recombinant human DP IV, mutation R560A (Homo sapiens, UniProt P27487, R560A); assay: Kinetic characterization of substrate hydrolysis (Km, kcat); conditions: mu 15 DP IV (R560A)
[3] = biological target: T2, recombinant human DP IV, wild type (Homo sapiens, UniProt P27487); assay: as above; type: biochemical; conditions: rh wt DP IV
T2 construct: His6 (N); made in house; host or cells: Pichia pastoris X-33 (vector pPICαC, secreted into the medium)

[4] = biological target: T3, recombinant human DP IV, mutation W629A (Homo sapiens, UniProt P27487, W629A); assay: as above; conditions: mu 16 DP IV (W629A)
DP IV [5] = assay: DP IV-catalyzed hydrolysis, determination of Km; type: biochemical
[6] = Stability in biological fluids (human serum or plasma)
[7] = biological target: T3, recombinant human DP IV, mutation W629A; assay: Ki in competition to standard substrate GP-4NA; type: biochemical; design: His6 (N); made in house; host or cells: Pichia pastoris X-33 (vector pPICαC, secreted); conditions: mu 16 DP IV (W629A), competition to GP-4NA
Method: (§3) In order to measure the inhibition constant Ki a photometric assay was used The peptides were measured as competitors of the standard substrate GP-4-Nitroanilide. Three different substrate concentrations (0.4 mM to 0.05 mM) were combined with 8 different competitor concentrations (0.5 mM to 2 μM). […] Experiments were carried out under standard conditions: 30° C. in pH 7.6 40 mM HEPES (Sigma-Aldrich) buffer. Nitroaniline production was monitored using a HTS 7000+ microplate reader (PerkinElmer, Überlingen, Germany).

[8] = biological target: T1, recombinant human DP IV, mutation R560A; assay: Ki in competition to standard substrate GP-4NA; type: biochemical; design: His6 (N); made in house; host or cells: Pichia pastoris X-33 (vector pPICαC, secreted); conditions: mu 15 DP IV (R560A), competition to GP-4NA
Method: as §3

[9] = biological target: T2, recombinant human DP IV, wild type; assay: Ki in competition to standard substrate GP-4NA; type: biochemical; conditions: rh wt DP IV, competition to GP-4NA
Method: as §3

[10] = biological target: T4, porcine kidney DP IV, wild type (Sus scrofa, UniProt P22411); assay: Ki in competition to standard substrate GP-4NA; type: biochemical; conditions: p wt DP IV; competition to GP-4NA
T4 construct: the DP IV-protein was released from the membrane by an 18 h autolysis step at 30° C; from tissue; host or cells: porcine kidney cortex
Method: (§4) In order to measure the inhibition constant Ki a photometric assay was used The peptides were measured as competitors of the standard substrate GP-4-Nitroanilide. Three different substrate concentrations (0.4 mM to 0.05 mM) were combined with 8 different competitor concentrations (0.5 mM to 2 μM). The reaction was started by addition of 3.5 nM DP IV. Experiments were carried out under standard conditions: 30° C. in pH 7.6 40 mM HEPES (Sigma-Aldrich) buffer. Nitroaniline production was monitored using a HTS 7000+ microplate reader (PerkinElmer, Überlingen, Germany). The Ki-values were calculated via non-linear regression using the enzyme kinetic program Grafit 4.016 (Erithacus Ltd, UK).

[11] = biological target: T4, porcine kidney DP IV, wild type; assay: Kinetic characterization of substrate hydrolysis (Km); type: biochemical; conditions: p wt DP IV
DP IV [12] = assay: DP IV-catalyzed peptide truncation test with or without preincubation with effector peptide; type: biochemical; conditions: for affinity of larger oligopeptides such as GIP, VIP, glucagon / binding and hydrolysis of small dipeptide substrates: DP IV preincubated with the peptide
Method: as §2
In order to investigate directly the influence of the test compounds TFTSDY, TFTDDY and H-Ser-D-Glu-Thr-Gly-D-Val-D-Lys-D-Val-OH on the DP IV-catalyzed peptide hydrolysis the MALDI-TOF assay was used.
As described before (determination of t1/2) DP IV and the test compounds were preincubated and the reaction was started by adding the enzyme/hexapeptide mixture to substrate/buffer mix. The control reaction mixture consisted of buffer, enzyme and substrate. From the curves of the first order exponential the initial rate (vi) for the control and the reversible inhibited reaction was calculated.

DP IV [13] = assay: Photometric Ki assay, competition with standard substrate GP-4-Nitroanilide; type: biochemical; conditions: read-out: Ki, influence on GP-4-Nitroanilide hydrolysis
Method: as §4
For a reversible competitive inhibition is to assumed: […]

[14] = DP IV-catalyzed truncation of peptides, half-life by MALDI-TOF MS; type: biochemical
Method: as §1, §2

[15] = preincubation with 160 μM TFTSDY

T1 sequence (P27487 37-766 R560A): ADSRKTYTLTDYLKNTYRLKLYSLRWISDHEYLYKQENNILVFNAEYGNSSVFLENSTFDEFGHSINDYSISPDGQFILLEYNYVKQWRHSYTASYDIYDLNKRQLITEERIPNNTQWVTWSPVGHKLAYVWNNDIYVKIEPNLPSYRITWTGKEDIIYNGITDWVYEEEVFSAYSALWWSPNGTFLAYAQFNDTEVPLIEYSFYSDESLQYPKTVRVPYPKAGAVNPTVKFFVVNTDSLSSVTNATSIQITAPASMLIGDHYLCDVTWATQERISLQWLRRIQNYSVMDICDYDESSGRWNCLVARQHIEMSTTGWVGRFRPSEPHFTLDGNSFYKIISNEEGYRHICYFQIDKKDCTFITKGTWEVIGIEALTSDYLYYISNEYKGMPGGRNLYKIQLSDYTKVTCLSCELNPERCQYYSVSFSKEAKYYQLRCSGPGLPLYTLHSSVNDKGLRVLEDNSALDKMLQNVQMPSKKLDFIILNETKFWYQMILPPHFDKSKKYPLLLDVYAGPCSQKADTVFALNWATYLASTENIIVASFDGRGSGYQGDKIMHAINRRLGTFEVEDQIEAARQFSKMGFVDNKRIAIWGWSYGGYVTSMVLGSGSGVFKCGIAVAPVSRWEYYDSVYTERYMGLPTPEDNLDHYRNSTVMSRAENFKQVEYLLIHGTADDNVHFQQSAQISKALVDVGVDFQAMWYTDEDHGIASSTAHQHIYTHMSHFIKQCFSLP
T3 sequence (P27487 37-766 W629A): as the sequence (P27487 37-766 R560A) above, with A524R, W593A counted along it
T2 sequence (P27487 37-766): as the sequence (P27487 37-766 R560A) above, with A524R counted along it
T4 sequence (P22411 38-766 limits assumed): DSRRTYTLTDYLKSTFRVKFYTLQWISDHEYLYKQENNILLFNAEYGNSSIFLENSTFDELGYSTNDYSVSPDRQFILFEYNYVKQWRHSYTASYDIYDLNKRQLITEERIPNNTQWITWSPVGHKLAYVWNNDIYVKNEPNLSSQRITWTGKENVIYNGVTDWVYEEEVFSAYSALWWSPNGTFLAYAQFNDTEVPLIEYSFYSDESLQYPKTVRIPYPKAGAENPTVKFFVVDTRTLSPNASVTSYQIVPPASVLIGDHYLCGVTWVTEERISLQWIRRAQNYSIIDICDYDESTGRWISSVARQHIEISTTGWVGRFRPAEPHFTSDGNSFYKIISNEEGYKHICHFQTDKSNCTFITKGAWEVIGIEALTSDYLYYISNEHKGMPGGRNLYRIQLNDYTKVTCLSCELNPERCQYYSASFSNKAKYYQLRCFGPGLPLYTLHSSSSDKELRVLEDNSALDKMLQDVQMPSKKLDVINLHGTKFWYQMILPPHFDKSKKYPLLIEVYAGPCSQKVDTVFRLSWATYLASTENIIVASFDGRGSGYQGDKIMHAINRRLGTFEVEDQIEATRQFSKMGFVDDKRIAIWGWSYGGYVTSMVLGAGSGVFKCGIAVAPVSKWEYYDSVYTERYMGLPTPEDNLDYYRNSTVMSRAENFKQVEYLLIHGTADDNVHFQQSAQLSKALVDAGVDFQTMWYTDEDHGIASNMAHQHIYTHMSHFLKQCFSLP

In the case of V^2GIP1-6: GIP-fragment analog (YAEGTF), the Truncation half life (DP IV [1]) is reported as “no degradation” and the “hydrolysis by DP IV” value (DP IV [1]) is reported as “not hydrolyzed”.

In the case of `Cc1cc(=O)oc2cc(NC(=O)[C@@H]3CCCN3C(=O)CN)ccc12` [Gly-Pro-AMC, H-Gly-Pro-AMC] (H-Gly-Pro-{AMC}), the Km [2] is reported as 46.6 µM, the kcat [2] is reported as 1e+06 s⁻¹ and the Km [3] is reported as 35.3 µM. The kcat [3] was 1.66e+06 s⁻¹, the Km [4] was 50.2 µM and the kcat [4] was 1.44e+06 s⁻¹.

For `Cc1cc(=O)oc2cc(NC(=O)[C@H](CO)NC(=O)CN)ccc12` [Gly-Ser-AMC] (H-Gly-Ser-{AMC}), the Km [2] was “Not hydrolyzed”, the Km [3] was 440 µM and the Km [4] was “Not hydrolyzed”.

For `Cc1cc(=O)oc2cc(NC(=O)CNC(=O)[C@@H](N)Cc3c[nH]cn3)ccc12` [His-Gly-AMC] (H-His-Gly-{AMC}), the Km (DP IV [5]) was 410 µM.

In the case of `C[C@@H](O)[C@H](N)C(=O)N[C@@H](Cc1ccccc1)C(=O)N[C@H](C(=O)N[C@@H](CC(=O)O)C(=O)N[C@@H](CC(=O)O)C(=O)N[C@@H](Cc1ccc(O)cc1)C(=O)O)[C@@H](C)O` [TFTDDY] (H-TFTDDY-OH), the “stability in biological fluids” value [6] is reported as “instable”.

In the case of “V^2GIP(1-4): GIP-fragment analog, test compound of Table 5 (YAEGTF)”, the Ki [7] is reported as “no inhibition”, the Ki [8] is reported as “no inhibition” and the Ki [9] is reported as “no inhibition”.

Work on `C[C@H](NC(=O)[C@@H](N)Cc1ccc(O)cc1)C(=O)N[C@@H](CCC(=O)O)C(=O)N[C@@H](CO)C(=O)N[C@H](C(=O)N[C@@H](Cc1ccccc1)C(N)=O)[C@@H](C)O` [YAESTF amide] (H-YAESTF-NH2; N-terminus assumed) yielded a Ki ([9]; read-out: Ki) of 35.1 nM.

Work on `CC(C)C[C@H](N)C(=O)N1CCSC1` [Leu-Thia-Fum] yielded a Ki ([7]; read-out: Ki) of 65.7 nM, a Ki ([8]; read-out: Ki) of 68.1 nM and a Ki [10] of 72.9 nM. It also gave a Km [3] of 42.6 µM, a Ki ([9]; read-out: Ki) of 65.8 nM and a Km [11] of 59.8 µM.

In the case of `C[C@@H](O)[C@H](N)C(=O)N[C@@H](Cc1ccccc1)C(=O)N[C@H](C(=O)N[C@@H](CO)C(=O)N[C@@H](CC(=O)O)C(=O)N[C@@H](Cc1ccc(O)cc1)C(=O)O)[C@@H](C)O` [TFTSDY] (H-TFTSDY-OH; N-terminus and C-terminus assumed), the “half-lifes of GIP, Glucagon, PACAP-27 and PACAP-38” value (DP IV [12]; DP IV (porcine and recombinant human) catalyzed peptide truncation test, FIG. 16) is reported as “prolongation”, the “affinity of larger oligopeptides such as GIP, VIP, glucagon” value (DP IV [12]) is reported as “considerably reduced” and the “binding and hydrolysis of small dipeptide substrates” value (DP IV [12]) is reported as “only slightly influenced”. The “half-lives of GIP and glucagon in presence of DP IV” value (DP IV [12]; [15]) was “prolonged”, the “incubation of Rantes1-15 and DP IV with or without the hexapeptide” value (DP IV [12]; [15]) was “No differences” and the Ki [7] was “no inhibition”. For the same compound, the Ki [8] was “no inhibition”, the Ki (DP IV [13]) was 710000 nM and the Ki [9] was “no inhibition”. For the same compound, the “stability in biological fluids” value [6] was “instable”.

Compound `C[C@H](NC(=O)[C@@H](N)Cc1ccc(O)cc1)C(=O)N[C@@H](CCC(=O)O)C(=O)NCC(=O)N[C@H](C(=O)N[C@@H](Cc1ccccc1)C(=O)O)[C@@H](C)O` [GIP1-6, YAEGTF] (H-YAEGTF-OH; N-terminus and C-terminus assumed) has a half-life ([14]; bioactive peptides which are substrates for DP IV, read-out: Truncation half life) of under 0.125 h.

Work on “His^1-Ser^2-NPY: NPY analog, full-length substrate” yielded a Km (DP IV [5]) of 68 µM.

For `CC(C)[C@@H](NC(=O)[C@@H](CCCCN)NC(=O)[C@H](NC(=O)CNC(=O)[C@@H](NC(=O)[C@@H](CCC(=O)O)NC(=O)[C@@H](N)CO)[C@@H](C)O)C(C)C)C(=O)O` [H-Ser-D-Glu-Thr-Gly-D-Val-D-Lys-D-Val-OH] (H-S[dE]TG[dV][dK][dV]-OH), the “affinity of larger oligopeptides such as GIP, VIP, glucagon” value (DP IV [12]) was “considerably reduced”, the “binding and hydrolysis of small dipeptide substrates” value (DP IV [12]) was “only slightly influenced” and the “improving the substrate specificity of DP IV” value (DP IV [12]; compared to control experiments without the heptapeptide) was “very effective”. The “stability in biological fluids” value [6] was “not enzymatically degraded”.

For `C[C@@H](O)[C@H](NC(=O)CNC(=O)[C@H](CCC(=O)O)NC(=O)[C@H](CO)NC(=O)[C@@H](N)Cc1ccc(O)cc1)C(=O)N[C@@H](Cc1ccccc1)C(=O)O` [S^2GIP1-6] (H-YSEGTF-OH; N-terminus and C-terminus assumed), the Ki [7] was “no inhibition”, the Ki [8] was “no inhibition” and the half-life [14] was 1.32 h. For the same compound, the “hydrolysis by DP IV” value (DP IV [1]) was “truncated” and the Ki [9] was “no inhibition”.

[Gly]^2-glucagon: glucagon analog showed a Km (DP IV [5]) of 22 µM.

With G^2GIP1-6: GIP-fragment analog (YAEGTF) the Truncation half life (DP IV [1]) was “no degradation” and the “hydrolysis by DP IV” value (DP IV [1]) was “not hydrolyzed”.

Compound Glucagon has a Km (DP IV [5]) of 3.8 µM.
